Source: patent US5175163A, “Triazolyl thioamide derivates” (Egis Gyogyszergyar, priority 1989, dated 1992)
Read-outs that look alike come from different tables or passages of the source.

Experiments:
reserpine ptosis on mice = experiment: Antagonism of reserpine ptosis on mice; details: for ED50: Mus musculus, sc; for Therapeutical index: reserpine ptosis, mice, Table II
Procedure: Groups consisting of 10 mice each were treated with 6 mg/kg of reserpine, subcutaneously, according to the method of Hoffmeister et. al. [Arzneim. […] The animals with ptosis were counted 60 and 120 minutes after the administration of the compounds to be tested. Evaluation was carried out as given under the above test.

pentetrazole spasm = experiment: Inhibition of pentetrazole spasm; type: in vivo; details: white mice; for ED50: Mus musculus, po, 1 h, orally, one hour before pentetrazole 125 mg/kg intraperitoneally, tonic extensoric spasms of the hind limbs; for Therapeutical index: pentetrazole spasm, Table III
Hexobarbital narcosis = Hexobarbital narcosis potentiating effect; details: for ED50: Mus musculus, po, 1 h; for Therapeutical index: hexobarbital narcosis, white mice, Table V
Procedure: Groups consisting of six mice were used for each dose. The test compound was administered orally and one hour after this treatment narcosis was induced by means of a 40 mg/kg i.v. dose of hexobarbital. The control group received carrier instead of the test compound.
The ED50 values thus transformed were calculated.

[1] = system: nicotine spasm and lethality; experiment: Inhibition of nicotine spasm and lethality; type: in vivo; details: for ED50: po, 1 h, orally, an hour before nicotine 1.4 mg/kg i.v., spasms and lethality within an hour
Procedure: The test was carried out according to the method of Stone. [Arch. Int. Pharmacodyn.

[2] = Table III (pentetrazole spasm)
[3] = system: tetrabenazine ptosis on mice; experiment: Antagonism of tetrabenazine ptosis on mice; details: Mus musculus, po
Procedure: (§1) Groups consisting of 10-20 mice each were treated perorally, with different doses of the compounds to be tested. The control group was treated only with the corresponding carrier. After 30 minutes tetrabenazine [3-isobutyl-9,10-dimethoxy-1,2,3,4,6,7-hexahydrobenzo[a]-quinolizine-2-one] was administered intraperitoneally at a dosage of 50 mg/kg. The number of animals having closed palpebral fissure was determined in each group after 30, 60, 90 and 120 minutes, resp.
(§2) The mean value of ptosis was calculated in each group, and the deviation from that of the control group (i.e. the inhibition) was expressed in percentage.

[4] = system: tetrabenazine ptosis on mice; details: mouse, in vivo, po
Procedure: as §1, §2

SMILES | ED50 (reserpine ptosis on mice) | Therapeutical index (reserpine ptosis on mice) | LD50 (in vivo) | ED50 (Hexobarbital narcosis) | Therapeutical index (Hexobarbital narcosis) | further results
CN(C)CCC=C1c2ccccc2CCc2ccccc21 [Amitryptiline, reference compound] | 65 mg/kg | 3.5 | 225 mg/kg | – | – | –
Nc1nc(N2CCOCC2)nn1C(=S)NCCCOc1cccc(CN2CCCCC2)c1 [Example 1, 1-(5-Amino-3-morpholino-1H-1,2,4-triazol-1-yl)-N-{3-[3-(1-piperidinylmethyl)phenoxyl]propyl}carbothioamide] | 17 mg/kg | > 117 | > 2000 mg/kg | 50 mg/kg | > 40 | ED50 (pentetrazole spasm): 295 mg/kg; Therapeutical index (pentetrazole spasm): > 7; Therapeutical index ([1]; nicotine spasm and lethality, Table IV): > 29; ED50 [1]: 68 mg/kg
CN(C)c1nc(N)n(C(=S)NCCCOc2cccc(CN3CCCCC3)c2)n1 [Example 2, 1-[5-Amino-3-dimethylamino-1H-1,2,4-triazol-1-yl]-N-{3-[3-(1-piperidinylmethyl)phenoxy]propyl}carbothioamide] | – | – | > 1000 mg/kg | 110 mg/kg | > 9 | ED50 (pentetrazole spasm): 64 mg/kg; Therapeutical index (pentetrazole spasm): > 15; LD50 [2]: > 1000 mg/kg
CN1CCN(c2nc(N)n(C(=S)NCCCOc3cccc(CN4CCCCC4)c3)n2)CC1 [Example 3, 1-[5-Amino-3-(4-methylpiperazinyl)-1H-1,2,4-triazol-1-yl]-N-{3-[3-(1-piperidinylmethyl)phenoxy]propyl}carbothioamide] | – | – | > 1000 mg/kg | – | – | ED50 [3]: 11 mg/kg; Therapeutical index [4]: > 90
C=CCN(CC=C)c1nc(N)n(C(=S)NCCCOc2cccc(CN3CCCCC3)c2)n1 [Example 5, 1-[5-Amino-3-diallylamino-1H-1,2,4-triazol-1-yl]-N-{3-[3-(1-piperidinylmethyl)phenoxy]propyl}carbothioamide] | – | – | > 1000 mg/kg | 200 mg/kg | > 5 | –
COc1ccc(CCNC(=S)n2nc(SC)nc2N)cc1OC [Example 6, 1-[5-Amino-3-methylthio-1H-1,2,4-triazol-1-yl]-N-[2-(3,4-dimethoxyphenyl)ethyl]carbothioamide] | 20 mg/kg | > 100 | > 2000 mg/kg | – | – | –
CCCC(C)(COC(N)=O)COC(N)=O [Meprobamate, reference compound] | – | – | 1100 mg/kg | – | 4.1 | –
OC(CCN1CCCCC1)(c1ccccc1)C1CCCCC1 (stereo not shown) [Trihexyphenidyl, reference compound] | – | – | – | – | – | ED50 [1]: 20 mg/kg
CN1C(=O)OC(C)(C)C1=O [Trimethadion, reference compound] | – | – | – | – | – | LD50 [2]: 2050 mg/kg
